Results as given in publication PMC12562640, “Investigating Amphoteric 3,4′-Biscoumarin-Based ortho-[(Dialkylamino)methyl]phenols as Dual MAO and ChE Inhibitors” (International Journal of Molecular Sciences, 2025).
≈ marks a conversion by molar mass, not a printed value. Where “and” joins values, the source holds several entries; their conditions need not be identical. Equal values may be shown once. Read-outs that look alike come from different tables or passages of the source.

How the values were obtained:
[1] = target: T1, human MAO-A (Homo sapiens, UniProt P21397); assay: Inhibition kinetics and time course of MAO-A inhibition; format: biochemical; details: for reversibility of MAO-A inhibition: time course, absorbance of 4-hydroxyquinoline at 316 nm, inhibitor close to IC50
T1 construct: purchased Sigma Aldrich; host or cells: insect cells infected with baculovirus (microsomes)
T1 sequence (P21397 1-527): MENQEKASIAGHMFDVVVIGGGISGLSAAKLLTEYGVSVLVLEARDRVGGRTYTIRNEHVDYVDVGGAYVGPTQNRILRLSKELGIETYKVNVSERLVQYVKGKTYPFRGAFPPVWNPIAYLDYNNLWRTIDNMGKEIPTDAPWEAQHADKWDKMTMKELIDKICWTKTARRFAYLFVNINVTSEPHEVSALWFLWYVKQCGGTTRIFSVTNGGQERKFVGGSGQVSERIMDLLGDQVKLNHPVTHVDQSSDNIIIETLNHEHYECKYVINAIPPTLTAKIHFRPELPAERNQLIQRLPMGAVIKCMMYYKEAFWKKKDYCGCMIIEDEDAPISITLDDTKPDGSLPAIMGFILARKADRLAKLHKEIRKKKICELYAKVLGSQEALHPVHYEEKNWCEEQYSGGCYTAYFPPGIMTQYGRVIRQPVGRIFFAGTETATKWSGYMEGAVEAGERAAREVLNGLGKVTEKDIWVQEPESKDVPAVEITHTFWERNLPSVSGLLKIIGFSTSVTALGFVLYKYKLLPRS
Text: For the sake of clarity, the position of the Mannich base (-CH2NR2) on the main coumarin core will be indicated as C8, whereas the positions of Cl or Br and OMe on the 4-coumarin-3-yl moiety will be indicated as C6′ and C8′.
Time courses of MAO-A inhibition by 2b and 5b, using a spectrophotometric assay measuring the absorbance of 4-
(1 picture or pasted object on this page, not shown here)

[2] = Lipophilicity by RP-HPLC (log k'w); format: physicochemical; details: C18, extrapolated to 100% water mobile phase
Protocol: The lipophilicity of the five compounds in Table 4 was assessed by calculation and experimental approaches. As a calculated lipophilicity parameter (log Pcalc), we took from the SwissADME free website (http://www.swissadme.ch) the ‘Consensus Log Po/w’, that is, the arithmetic mean of octanol/water log Ps calculated by five methods (iLOGP, XLOGP3, WLOGP, MLOGP, and SILICOS-IT).
The lipophilicity parameters were determined by an RP-HPLC technique. In short, methanolic solutions of the examined compounds (1 mg·mL^−1) were analyzed by the Agilent 1260 infinite HPLC system (Agilent Technologies, Milan, Italy) equipped with a diode array detector (DAD), using a Phenomenex C18-column (Kinetex 5 μ, 100 Å, 150 × 3 mm) as the stationary phase and MeOH/water buffer mobile phases with different v/v composition (i.e., mobile phases containing 0.05 increments of MeOH volume fractions in 10 mM ammonium formate buffer at pH 4.5; φMeOH ranging between 0.70 and 0.20). The chromatographic measurements were carried out at 25 ± 1 °C, flow rate of 0.5 mL·min^−1, and detection at λ 330 nm. The log of capacity factors of each compound at different mobile phase compositions was calculated (log k′ = log (tR − t0)/t0, where tR represents the retention time of the solute and t0 is the column dead time). For each compound, the equation of the linear relationship between log k′ and φMeOH (R^2 > 0.991) on at least five datapoints, each from duplicate, was derived by regression analysis and the intercept at the y-axis (i.e., φMeOH = 0) calculated as the lipophilicity parameter log k′w.

[3] = target: T1, human MAO-A; assay: biochemical; format: biochemical; details: for inhibition at 10 µM / huMAO-A % inhibition: at 10 µM concentration, mean ± SD
Protocol: (§1) The inhibition assays of human monoamine oxidases were conducted using a fluorescence-based method with kynuramine as a non-selective substrate for each isoform, MAO-A/B [44, 45, 46]. Recombinant human MAO-A and MAO-B (microsomes from insect cells infected with baculovirus; Sigma Aldrich, St. Louis, MO, USA) (Merk Life Science S.r.l., Milan, Italy) were used. The measurements were performed in triplicate in black round-bottom polystyrene 96-well plates (Greiner Bio-One, Kremsmünster, Austria). […] In the MAO inhibition assays, all compounds were initially screened at a concentration of 10 µM. Each of them was preincubated at 37 °C for 20 min with 50 µM kynuramine in a phosphate buffer (PBS, 0.1 M, pH 8.0), adjusted to 0.39 osmolarity with KCl. After adding recombinant human MAO-A/B (250 U/mg and 59 U/mg, respectively) and incubating for another 30 min, NaOH was added. The fluorescence was measured at excitation/emission wavelengths of 310/400 nm. […] The IC50 is reported as the mean ± SD of three independent experiments, each performed in duplicate.

[4] = target: T2, human huMAO-B (Homo sapiens, UniProt P27338); assay: biochemical; format: biochemical; details: for inhibition at 10 µM / huMAO-B % inhibition: at 10 µM concentration, mean ± SD
T2 construct: purchased Sigma Aldrich; host or cells: insect cells infected with baculovirus (microsomes)
T2 sequence (P27338 1-520): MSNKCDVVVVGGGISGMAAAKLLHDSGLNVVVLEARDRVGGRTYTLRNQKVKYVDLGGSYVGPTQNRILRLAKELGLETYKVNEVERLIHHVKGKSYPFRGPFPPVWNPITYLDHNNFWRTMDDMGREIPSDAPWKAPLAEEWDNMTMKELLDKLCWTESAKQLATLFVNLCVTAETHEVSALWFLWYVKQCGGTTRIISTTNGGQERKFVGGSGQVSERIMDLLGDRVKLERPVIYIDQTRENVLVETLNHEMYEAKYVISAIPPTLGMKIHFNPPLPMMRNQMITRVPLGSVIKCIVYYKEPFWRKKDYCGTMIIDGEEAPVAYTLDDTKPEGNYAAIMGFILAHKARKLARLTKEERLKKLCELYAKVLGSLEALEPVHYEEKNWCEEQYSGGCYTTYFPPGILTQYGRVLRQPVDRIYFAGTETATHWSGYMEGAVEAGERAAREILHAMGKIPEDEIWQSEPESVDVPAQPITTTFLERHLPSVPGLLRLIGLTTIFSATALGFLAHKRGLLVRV
Protocol: as §1

[5] = target: T3, horse serum eqBChE (Equus caballus, UniProt P81908); assay: biochemical; format: biochemical; details: for inhibition at 10 µM / eqBChE % inhibition / eqBChE inhibition class: at 10 µM concentration
T3 construct: Acetylcholinesterase from electric eel and butyrylcholinesterase from equine serum (Sigma Aldrich) were employed; purchased Sigma Aldrich; host or cells: equine serum
Protocol: (§2) Cholinesterase inhibition assays were carried out using the Ellman spectrophotometric method, modified for a 96-well plate format. Acetylcholinesterase from electric eel and butyrylcholinesterase from equine serum (Sigma Aldrich) were employed. The measurements were performed in triplicate using clear, flat-bottom polystyrene plates (Greiner Bio-One).

[6] = Kinetic solubility in aqueous buffers (RP-HPLC); format: physicochemical; details: for solubility at 2 h: PBS buffer, 25 °C, pH 7.4, aqueous buffer, kinetic from dmso stock, PBS (50 mM, pH 7.4, 0.15 M KCl) at 25 ± 1 °C, n = 3, read-out: Solubility Exp.
Protocol: Water solubility and lipophilicity parameters were measured following previously reported methods. […] The mixture was then separated by centrifugation at 2500 rpm for 3 min. Immediately after filtration, 100 µL of the filtrate was mixed with an equal volume of a 1:1 (v/v) DMSO and PBS (50 mM, pH 7.4, KCl 0.15 M) or HCl (0.01 M, pH 2, KCl 0.15 M) solution to prevent precipitation from the saturated solution and subsequently analyzed by HPLC. The peak area was compared to a calibration curve of the tested compound in MeOH. The analytical parameters were set as follows. Mobile phase: MeOH/water pH 2.8 (acetic acid 0.5% v/v) at different percentages depending on the retention time of each test compound; stationary phase: Phenomenex, Kinetex 5 µ, C8, (150 × 3 mm); flux: […]; injection: 2 µL; λ 330 nm. The analyses were performed on the Agilent HPLC 1260 Infinity Series Integrated System (Agilent Technologies, Milan, Italy).

[7] = target: T4, electric eel eeAChE (Electrophorus electricus, UniProt O42275); assay: biochemical; details: for inhibition at 10 µM / eeAChE % inhibition: at 10 µM concentration, mean ± SD; for IC50: mean ± SD of three independent determinations, ~10 means 50–60% inhibition at 10 µM
T4 construct: Acetylcholinesterase from electric eel and butyrylcholinesterase from equine serum (Sigma Aldrich) were employed; purchased Sigma Aldrich; host or cells: electric eel (natural source)

[8] = target: human huAChE (Homo sapiens, UniProt P22303); assay: biochemical; format: biochemical
Protocol: The inhibition of human huAChE was also evaluated for five compounds.
as §2

[9] = read-out: eqBChE inhibition class
[10] = mean ± SD, read-out: eqBChE % inhibition
[11] = mean ± SD of three independent determinations, ~10 means 50–60% inhibition at 10 µM

T3 sequence (P81908 whole entry): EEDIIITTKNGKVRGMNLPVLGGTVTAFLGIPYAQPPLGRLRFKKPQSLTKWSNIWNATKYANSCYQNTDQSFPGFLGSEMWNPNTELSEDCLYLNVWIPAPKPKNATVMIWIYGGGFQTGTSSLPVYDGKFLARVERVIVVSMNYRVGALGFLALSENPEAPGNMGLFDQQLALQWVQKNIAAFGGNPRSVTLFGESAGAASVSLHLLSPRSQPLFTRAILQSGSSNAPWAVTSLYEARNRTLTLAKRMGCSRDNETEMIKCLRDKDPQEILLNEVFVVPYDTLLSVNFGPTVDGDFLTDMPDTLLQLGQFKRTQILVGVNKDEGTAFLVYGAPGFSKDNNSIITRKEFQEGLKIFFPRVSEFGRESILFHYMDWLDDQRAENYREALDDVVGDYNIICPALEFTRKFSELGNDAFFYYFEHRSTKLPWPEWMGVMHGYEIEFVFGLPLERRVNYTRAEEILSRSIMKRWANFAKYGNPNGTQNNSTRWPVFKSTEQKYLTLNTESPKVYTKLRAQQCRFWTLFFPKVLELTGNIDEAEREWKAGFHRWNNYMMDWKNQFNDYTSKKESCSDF
T4 sequence (O42275 24-633): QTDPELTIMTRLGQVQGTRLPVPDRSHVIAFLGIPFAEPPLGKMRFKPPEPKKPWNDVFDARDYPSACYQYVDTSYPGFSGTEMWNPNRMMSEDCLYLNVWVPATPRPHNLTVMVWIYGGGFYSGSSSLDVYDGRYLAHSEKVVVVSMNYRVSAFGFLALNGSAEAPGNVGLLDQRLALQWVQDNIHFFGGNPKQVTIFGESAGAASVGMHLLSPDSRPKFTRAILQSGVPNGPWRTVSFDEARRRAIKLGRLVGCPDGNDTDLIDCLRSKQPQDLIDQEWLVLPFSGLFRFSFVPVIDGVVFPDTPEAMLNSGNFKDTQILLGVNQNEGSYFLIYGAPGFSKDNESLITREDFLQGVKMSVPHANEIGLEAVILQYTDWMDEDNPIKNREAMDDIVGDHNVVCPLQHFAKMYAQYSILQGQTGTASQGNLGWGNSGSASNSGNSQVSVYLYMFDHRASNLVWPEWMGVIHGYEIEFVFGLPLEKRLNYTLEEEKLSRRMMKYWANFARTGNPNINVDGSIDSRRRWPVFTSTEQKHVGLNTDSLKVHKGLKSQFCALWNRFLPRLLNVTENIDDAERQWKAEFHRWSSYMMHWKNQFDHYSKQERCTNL
Chain of human huAChE (P22303 32-614): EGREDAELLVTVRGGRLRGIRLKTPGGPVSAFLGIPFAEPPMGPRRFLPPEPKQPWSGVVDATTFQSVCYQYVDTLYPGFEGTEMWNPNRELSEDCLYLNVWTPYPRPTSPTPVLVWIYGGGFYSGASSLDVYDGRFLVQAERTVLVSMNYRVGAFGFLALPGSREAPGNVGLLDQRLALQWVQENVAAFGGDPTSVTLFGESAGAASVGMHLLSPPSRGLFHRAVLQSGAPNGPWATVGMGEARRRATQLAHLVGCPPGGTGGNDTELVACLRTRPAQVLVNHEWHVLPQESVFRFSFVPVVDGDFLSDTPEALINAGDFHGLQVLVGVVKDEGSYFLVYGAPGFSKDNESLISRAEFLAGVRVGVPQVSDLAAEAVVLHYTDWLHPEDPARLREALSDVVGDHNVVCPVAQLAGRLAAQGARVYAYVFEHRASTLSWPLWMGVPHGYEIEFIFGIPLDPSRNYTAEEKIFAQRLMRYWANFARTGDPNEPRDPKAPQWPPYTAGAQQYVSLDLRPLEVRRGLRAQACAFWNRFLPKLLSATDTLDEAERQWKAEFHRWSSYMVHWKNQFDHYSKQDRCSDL

## C#CCN(C)CCCOc1ccc(Cl)cc1Cl [Clorgiline, reference compound]
[1]
  reversibility of MAO-A inhibition: completely flattened

## CN(C)Cc1c(O)ccc2c(-c3cc4ccccc4oc3=O)cc(=O)oc12 [Compound 2a, 8-((dimethylamino)methyl)-4-(2-oxo-2H-chromen-3-yl)-7-hydroxy-2H-chromen-2-one]
[2]
  Log k’w (polycratic capacity factor): 2.11
[3]
  IC50: 8.3 ± 0.36 µM
[4]
  inhibition at 10 µM: 36%
[5]; [9]
  inhibition at 10 µM: < 10%
[6]
  solubility at 2 h: 183 µM (≈ 66.5 µg/mL)
[6]; PBS pH 7.4 vs ESOL
  experimental solubility in PBS pH 7.4, times higher than calculated with the ESOL model: two
[7]
  inhibition at 10 µM: 22%

## COc1cccc2cc(-c3cc(=O)oc4c(CN(C)C)c(O)ccc34)c(=O)oc12 [Compound 2d, 8-((dimethylamino)methyl)-4-(8-methoxy-2-oxo-2H-chromen-3-yl)-7-hydroxy-2H-chromen-2-one]
[2]
  Log k’w (polycratic capacity factor): 2.32
[4]
  inhibition at 10 µM: 28%
[5]; [10]
  inhibition at 10 µM: 25%
[6]
  solubility at 2 h: 196 µM (≈ 77.1 µg/mL)
[7]
  inhibition at 10 µM: 39%

## CCCN(CCC)Cc1c(O)ccc2c(-c3cc4ccccc4oc3=O)cc(=O)oc12 [Compound 4a]
[3]
  inhibition at 10 µM: 29%
[4]
  inhibition at 10 µM: 33%
[5]; [10]
  inhibition at 10 µM: 22%
[7]
  inhibition at 10 µM: 37%

## CCCN(CCC)Cc1c(O)ccc2c(-c3cc4cccc(OC)c4oc3=O)cc(=O)oc12 [Compound 4d, 8-((dipropylamino)methyl)-4-(8-methoxy-2-oxo-2H-chromen-3-yl)-7-hydroxy-2H-chromen-2-one]
[3]
  inhibition at 10 µM: 29%
[4]
  inhibition at 10 µM: 43%
[5]; [10]
  inhibition at 10 µM: 14%
[8]
  IC50: 0.97 ± 0.2 µM
[7]
  IC50: < 10 µM and 3.05 µM

## CCCCN(C)Cc1c(O)ccc2c(-c3cc4cc(Cl)ccc4oc3=O)cc(=O)oc12 [Compound 5b]
[3]; [11]
  IC50: 1.85 ± 0.11 µM
[4]; [11]
  IC50: ~10 µM
[5]; mean ± SD
  eqBChE % inhibition: [17 ± 7] %
[1]; Michaelis–Menten and Lineweaver–Burk plots
  mode of inhibition of MAO-A: competitive
[1]; human MAO-A, competitive inhibition, read-out: inhibition constant (Ki) MAO-A
  Ki: 0.326 µM
[1]
  reversibility of MAO-A inhibition: reversible
[8]; [11]
  IC50: ~10 µM
[7]
  eeAChE % inhibition: [25 ± 5] %

## CCCCN(C)Cc1c(O)ccc2c(-c3cc4cccc(OC)c4oc3=O)cc(=O)oc12 [Compound 5d, 8-((butyl(methyl)amino)methyl)-4-(8-methoxy-2-oxo-2H-chromen-3-yl)-7-hydroxy-2H-chromen-2-one]
[3]
  inhibition at 10 µM: 39%
[4]
  IC50: ~10 µM
[5]; [10]
  inhibition at 10 µM: 40%
[7]
  IC50: < 10 µM and 7.8 µM

## COCCN(CCOC)Cc1c(O)ccc2c(-c3cc4cc(Cl)ccc4oc3=O)cc(=O)oc12 [Compound 6b]
[3]
  huMAO-A % inhibition: [45 ± 3] %
[4]
  huMAO-B % inhibition: [35 ± 9] %
[5]
  eqBChE inhibition class: i.a. (compounds displaying average % inhibition less than 10% at 10 µM concentration)
[7]
  eeAChE % inhibition: [16 ± 4] %

## COCCN(CCOC)Cc1c(O)ccc2c(-c3cc4cccc(OC)c4oc3=O)cc(=O)oc12 [Compound 6d, 8-((bis(2-methoxyethyl)amino)methyl)-4-(8-methoxy-2-oxo-2H-chromen-3-yl)-7-hydroxy-2H-chromen-2-one]
[3]
  inhibition at 10 µM: 26%
[4]
  inhibition at 10 µM: 31%
[5]; [9]
  inhibition at 10 µM: < 10%
[7]
  inhibition at 10 µM: 20%

## COc1cccc2cc(-c3cc(=O)oc4c(CN(CC(C)C)CC(C)C)c(O)ccc34)c(=O)oc12 [Compound 7d]
[3]
  huMAO-A % inhibition: [27 ± 3] %
[4]
  huMAO-B % inhibition: [31 ± 2] %
[5]; mean ± SD
  eqBChE % inhibition: [34 ± 3] %
[7]
  IC50: ~10 µM

## CN(Cc1ccccc1)Cc1c(O)ccc2c(-c3cc4cc(Cl)ccc4oc3=O)cc(=O)oc12 [Compound 8b]
[3]; [11]
  IC50: ~10 µM
[4]
  huMAO-B % inhibition: [38 ± 3] %
[5]
  eqBChE inhibition class: i.a. (compounds displaying average % inhibition less than 10% at 10 µM concentration)
[7]
  eeAChE % inhibition: [16 ± 6] %

## COc1cccc2cc(-c3cc(=O)oc4c(CN(C)Cc5ccccc5)c(O)ccc34)c(=O)oc12 [Compound 8d]
[3]
  huMAO-A % inhibition: [31 ± 4] %
[4]
  huMAO-B % inhibition: [42 ± 3] %
[5]; [11]
  IC50: ~10 µM
[7]
  IC50: ~10 µM
